Measured values taken from US10517889B2, “Modulators of SMAD7 expression” (Ionis Pharmaceuticals, Inc., priority 2017, dated 2019).
Strand notation (5' to 3'): a small letter for the sugar, then the base; units joined by * are phosphorothioate-linked, units joined directly phosphodiester-linked; [ ] holds rarer units or linkages, { } end groups; capitals alone tell only the bases. k = constrained ethyl (cEt); [5mC] = 5-methylcytosine; d = 2'-deoxy (DNA)

Test system: human SMAD7 mRNA
Assay: Antisense inhibition of human SMAD7 mRNA expression in Hep3B cells by 3-10-3 cEt gapmers, 10,000 nM, electroporation (Example 2)
Assay type: cell-based
Conditions: Hep3B cells, approximately 24 hours
Procedure, shortened: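 qRT-PCR (RTS5062) of SMAD7 mRNA, normalised to RIBOGREEN total RNA, gave percent inhibition relative to untreated controls. Hep3B cells at 20,000 per well received 10,000 nM oligonucleotide by electroporation, with ~24 h treatment.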

[1] = electroporation with 10,000 nM antisense oligonucleotide, primer probe set RTS5062, relative to untreated control cells
[2] = electroporation with 10,000 nM antisense oligonucleotide, SMAD7 mRNA by RT-PCR (RTS5062), relative to untreated control cells
[3] = electroporation, 10,000 nM antisense oligonucleotide, RTS5062, relative to untreated control cells
[4] = electroporation with 10,000 nM antisense oligonucleotide, RTS5062, percent inhibition of SMAD7 mRNA relative to untreated control cells

799476 (antisense kG*k[5mC]*kT*d[5mC]*dA*dA*dA*dG*dG*dG*d[5mC]*d[5mC]*dA*k[5mC]*k[5mC]*k[5mC]) [compound 799476]
% inhibition of SMAD7 mRNA expression [1]: 0%

799477 (antisense kG*kT*kT*d[5mC]*d[5mC]*dA*dT*dA*dG*dG*d[5mC]*dA*dG*k[5mC]*k[5mC]*kA) [compound 799477]
% inhibition of SMAD7 mRNA expression [1]: 4%

799478 (antisense k[5mC]*k[5mC]*k[5mC]*dT*dA*d[5mC]*d[5mC]*dA*d[5mC]*d[5mC]*d[5mC]*d[5mC]*dT*kG*kT*kG) [compound 799478]
% inhibition of SMAD7 mRNA expression [1]: 17%

799479 (antisense kT*kG*k[5mC]*d[5mC]*d[5mC]*dT*dT*d[5mC]*dT*dG*d[5mC]*dA*dG*kT*kG*kG) [compound 799479]
% inhibition of SMAD7 mRNA expression [1]: 24%

799480 (antisense k[5mC]*kA*k[5mC]*dA*d[5mC]*dA*dG*dG*d[5mC]*dA*dA*d[5mC]*d[5mC]*kA*k[5mC]*kA) [compound 799480]
% inhibition of SMAD7 mRNA expression [1]: 45%

799481 (antisense k[5mC]*kT*k[5mC]*d[5mC]*dA*d[5mC]*dA*d[5mC]*dA*dG*dG*d[5mC]*dA*kA*k[5mC]*k[5mC]) [compound 799481]
% inhibition of SMAD7 mRNA expression [1]: 34%

799482 (antisense kG*kA*kA*dA*dA*dG*d[5mC]*d[5mC]*dG*dG*dG*d[5mC]*dA*kT*k[5mC]*kT) [compound 799482]
% inhibition of SMAD7 mRNA expression [1]: 30%

799483 (antisense k[5mC]*kA*kA*dA*dG*dG*dA*dA*dA*dA*dG*d[5mC]*d[5mC]*kG*kG*kG) [compound 799483]
% inhibition of SMAD7 mRNA expression [1]: 35%

799484 (antisense k[5mC]*kG*k[5mC]*d[5mC]*dA*d[5mC]*d[5mC]*dT*dT*dT*dG*dG*d[5mC]*kT*kG*kG) [compound 799484]
% inhibition of SMAD7 mRNA expression [1]: 0%

799485 (antisense kA*kG*k[5mC]*d[5mC]*dA*d[5mC]*dT*d[5mC]*d[5mC]*d[5mC]*d[5mC]*dG*d[5mC]*k[5mC]*kA*k[5mC]) [compound 799485]
% Inhibition [2]: 0%

799487 (antisense kA*kA*kA*d[5mC]*dA*dT*dA*dA*dT*dG*dA*d[5mC]*dT*kT*kA*kT) [compound 799487]
% Inhibition [2]: 0%

799488 (antisense kT*kG*kG*dA*dA*dG*dA*d[5mC]*dA*d[5mC]*d[5mC]*d[5mC]*d[5mC]*k[5mC]*kA*k[5mC]) [compound 799488]
% Inhibition [2]: 42%

799489 (antisense kT*k[5mC]*kT*dA*dA*dA*d[5mC]*d[5mC]*dA*dT*dT*dT*dT*kG*kA*kT) [compound 799489]
% Inhibition [2]: 0%

799490 (antisense kT*kT*kA*dA*dA*dT*dG*dG*dT*dG*dT*dA*dT*kA*k[5mC]*k[5mC]) [compound 799490]
% Inhibition [2]: 0%

799491 (antisense kG*kG*k[5mC]*dA*dG*dG*d[5mC]*dA*dG*dG*dA*dA*dA*kT*kG*kG) [compound 799491]
% Inhibition [2]: 38%

799492 (antisense kA*kA*kA*d[5mC]*dA*dA*dT*dA*dG*dA*dG*dG*d[5mC]*kA*kG*kG) [compound 799492]
% Inhibition [2]: 58%

799493 (antisense kA*kT*kA*d[5mC]*dA*d[5mC]*dT*dT*dA*dA*dT*d[5mC]*dA*kA*kA*k[5mC]) [compound 799493]
% Inhibition [2]: 1%

799494 (antisense kA*kG*kG*dA*dT*dA*d[5mC]*dA*d[5mC]*dT*dT*dA*dA*kT*k[5mC]*kA) [compound 799494]
% Inhibition [2]: 45%

799495 (antisense k[5mC]*kT*kA*dA*d[5mC]*dA*dG*dG*dA*dA*dT*dA*dT*kA*k[5mC]*kA) [compound 799495]
% inhibition of SMAD7 mRNA expression [1]: 25%

799497 (antisense kA*kA*kG*dA*dA*d[5mC]*dT*d[5mC]*dT*d[5mC]*d[5mC]*dT*dA*kA*kG*k[5mC]) [compound 799497]
% inhibition of SMAD7 mRNA expression [1]: 0%

799498 (antisense kT*k[5mC]*kA*dA*dG*dA*dA*d[5mC]*dT*d[5mC]*dT*d[5mC]*d[5mC]*kT*kA*kA) [compound 799498]
% inhibition of SMAD7 mRNA expression [3]: 31%

799499 (antisense kT*k[5mC]*k[5mC]*dT*dT*dT*dA*dG*dT*dG*dG*d[5mC]*d[5mC]*kT*kA*k[5mC]) [compound 799499]
% inhibition of SMAD7 mRNA expression [3]: 54%

799500 (antisense kG*kA*kG*d[5mC]*dA*dG*dA*d[5mC]*dG*dG*dG*d[5mC]*dA*kA*kG*kT) [compound 799500]
% inhibition of SMAD7 mRNA expression [3]: 28%

799501 (antisense kA*kA*kA*dA*dG*dA*dG*d[5mC]*dA*dG*dA*d[5mC]*dG*kG*kG*k[5mC]) [compound 799501]
% inhibition of SMAD7 mRNA expression [3]: 0%

799502 (antisense k[5mC]*kA*kA*dA*dT*dA*dG*dG*dA*dA*dA*dG*d[5mC]*k[5mC]*kA*kA) [compound 799502]
% inhibition of SMAD7 mRNA expression [3]: 31%

799503 (antisense kG*kG*k[5mC]*d[5mC]*dA*d[5mC]*d[5mC]*dA*dG*dG*dA*d[5mC]*dA*kA*kT*kG) [compound 799503]
% inhibition of SMAD7 mRNA expression [3]: 0%

799504 (antisense kA*kG*kG*dA*dA*dA*dG*dG*dT*dG*d[5mC]*dT*dG*k[5mC]*k[5mC]*k[5mC]) [compound 799504]
% inhibition of SMAD7 mRNA expression [3]: 15%

799505 (antisense k[5mC]*k[5mC]*k[5mC]*dG*dG*d[5mC]*dT*dA*dA*dG*dG*dA*dA*kA*kG*kG) [compound 799505]
% Inhibition [2]: 31%

799506 (antisense kG*kG*kA*dG*dA*dG*d[5mC]*d[5mC]*d[5mC]*dG*dG*d[5mC]*dT*kA*kA*kG) [compound 799506]
% Inhibition [2]: 4%

799507 (antisense kA*k[5mC]*kT*d[5mC]*dA*dT*dT*dA*dG*dT*d[5mC]*d[5mC]*d[5mC]*kA*kT*kG) [compound 799507]
% Inhibition [2]: 34%

799508 (antisense kG*k[5mC]*kA*dA*dT*dT*dA*dA*dA*dG*d[5mC]*dA*dA*kA*kA*k[5mC]) [compound 799508]
% Inhibition [2]: 0%

799510 (antisense kG*kA*kG*dA*dA*dA*d[5mC]*dA*dG*dT*d[5mC]*dT*d[5mC]*k[5mC]*kA*k[5mC]) [compound 799510]
% Inhibition [2]: 57%

799512 (antisense kG*kT*kT*dA*dA*dT*dG*dA*dG*dG*dA*dT*dA*kA*kT*kG) [compound 799512]
% Inhibition [2]: 16%

799513 (antisense kT*kA*k[5mC]*d[5mC]*dT*dT*dT*dA*dG*dA*dT*dT*dG*k[5mC]*kA*kT) [compound 799513]
% Inhibition [2]: 66%

799514 (antisense kT*k[5mC]*kG*dG*dA*dG*dT*dT*dT*d[5mC]*d[5mC]*dT*d[5mC]*kA*k[5mC]*kT) [compound 799514]
% Inhibition [4]: 40%

799515 (antisense k[5mC]*k[5mC]*k[5mC]*d[5mC]*dA*dG*dA*d[5mC]*d[5mC]*dT*dG*d[5mC]*dT*kA*kA*kG) [compound 799515]
% inhibition of SMAD7 mRNA expression [3]: 38%

799516 (antisense k[5mC]*kA*k[5mC]*d[5mC]*dA*dG*dA*dT*d[5mC]*dA*dA*dG*dA*k[5mC]*kA*kG) [compound 799516]
% inhibition of SMAD7 mRNA expression [3]: 0%

799517 (antisense k[5mC]*kT*kT*dA*dA*dG*dT*dA*dG*dA*dG*d[5mC]*dA*kA*kA*kG) [compound 799517]
% inhibition of SMAD7 mRNA expression [3]: 0%

799518 (antisense kA*k[5mC]*kT*dT*dA*dA*dG*dT*dA*dG*dA*dG*d[5mC]*kA*kA*kA) [compound 799518]
% inhibition of SMAD7 mRNA expression [3]: 38%

799519 (antisense kA*kA*k[5mC]*dT*dT*dA*dA*dG*dT*dA*dG*dA*dG*k[5mC]*kA*kA) [compound 799519]
% inhibition of SMAD7 mRNA expression [3]: 44%

799520 (antisense kG*kA*kT*dT*dG*dA*dT*dG*dT*dT*dG*dG*dG*k[5mC]*kT*kG) [compound 799520]
% inhibition of SMAD7 mRNA expression [3]: 51%

799521 (antisense kT*kA*kA*dA*dG*dA*d[5mC]*dA*dG*dG*dT*dT*dT*k[5mC]*k[5mC]*k[5mC]) [compound 799521]
% inhibition of SMAD7 mRNA expression [3]: 57%

799522 (antisense kT*kT*kT*dA*dA*dA*dG*dA*d[5mC]*dA*dG*dG*dT*kT*kT*k[5mC]) [compound 799522]
% inhibition of SMAD7 mRNA expression [3]: 32%

799523 (antisense kG*kG*k[5mC]*dA*dG*dA*dA*dG*dG*d[5mC]*dT*d[5mC]*dT*k[5mC]*kT*k[5mC]) [compound 799523]
% inhibition of SMAD7 mRNA expression [3]: 28%

799524 (antisense kA*kT*k[5mC]*dA*dA*dG*dG*dG*d[5mC]*dA*dG*dA*dA*kG*kG*k[5mC]) [compound 799524]
% Inhibition [4]: 23%

799525 (antisense kA*kG*kG*dT*dT*dT*dG*dG*dG*dT*dT*dG*dG*kA*k[5mC]*kT) [compound 799525]
% Inhibition [4]: 8%

799526 (kA*kA*kG*dG*dA*dG*dG*dT*dT*dT*dG*dG*dG*kT*kT*kG; antisense) [compound 799526]
% Inhibition [4]: 12%

799527 (kG*kT*k[5mC]*dA*dA*dA*dG*dG*dA*dG*dG*dT*dT*kT*kG*kG; antisense) [compound 799527]
% Inhibition [4]: 4%

799528 (k[5mC]*kG*kG*dA*dT*dA*d[5mC]*d[5mC]*dA*dG*dG*dT*dG*kG*kT*kT; antisense) [compound 799528]
% Inhibition [4]: 17%

799529 (kG*kA*kA*dT*dT*dT*d[5mC]*dT*d[5mC]*dT*dT*dG*d[5mC]*kA*kT*kT; antisense) [compound 799529]
% Inhibition [4]: 27%

799530 (kG*k[5mC]*kT*d[5mC]*dA*dA*dT*dG*dA*dG*dA*d[5mC]*dT*kG*kG*k[5mC]; antisense) [compound 799530]
% Inhibition [4]: 34%

799531 (k[5mC]*kT*kT*dT*dA*dG*d[5mC]*dA*dA*dT*dT*dT*d[5mC]*kA*kA*kA; antisense) [compound 799531]
% Inhibition [4]: 32%
